The results in this text go back to ChEMBL document CHEMBL1255241, “Novel characteristics of community-acquired methicillin-resistant Staphylococcus aureus strains belonging to multilocus sequence type 59 in Taiwan” (2008).

Common to all, as to assay type: functional
Assay [1] has as its system Staphylococcus aureus. Put plainly: Antibacterial activity against group 1 PVL+ community-acquired methicillin-resistant Staphylococcus aureus ST 59 expressing SCCmec type VT gene by agar dilution method.
In assay [2] the test system is Staphylococcus aureus. Nature of the assay: Antibacterial activity against group 1-v1 PVL+ community-acquired methicillin-resistant Staphylococcus aureus ST 59 expressing SCCmec type V gene by agar dilution method. In general terms: In agar dilution, organisms are placed on agar that contains the substance at set levels.
For assay [3], the system named is Staphylococcus aureus. Put plainly: Antibacterial activity against group 1-v2 PVL+ community-acquired methicillin-resistant Staphylococcus aureus ST 59 expressing SCCmec type X gene by agar dilution method.
In assay [4] the test system is Staphylococcus aureus. Put plainly: Antibacterial activity against group 1-v3 PVL+ community-acquired methicillin-resistant Staphylococcus aureus ST 59 expressing SCCmec type V gene by agar dilution method.
The test system of assay [5] is Staphylococcus aureus. Nature of the assay: Antibacterial activity against group 1-v4 PVL+ community-acquired methicillin-resistant Staphylococcus aureus ST 59 expressing SCCmec type VT gene by agar dilution method.
Assay [6] relates to Staphylococcus aureus. Put plainly: Antibacterial activity against group 2 PVL+ community-acquired methicillin-resistant Staphylococcus aureus ST 30 expressing SCCmec type IVc gene by agar dilution method.
Assay [7] concerns Staphylococcus aureus. Put plainly: Antibacterial activity against group 3 PVL negative community-acquired methicillin-resistant Staphylococcus aureus ST 239 expressing SCCmec type III gene by agar dilution method.
Assay [8] has as its system Staphylococcus aureus. Nature of the assay: Antibacterial activity against group 3-v1 PVL negative community-acquired methicillin-resistant Staphylococcus aureus ST 900 expressing SCCmec type III gene by agar dilution method.
The test system of assay [9] is Staphylococcus aureus. Nature of the assay: Antibacterial activity against group 4 PVL negative community-acquired methicillin-resistant Staphylococcus aureus ST 59 expressing SCCmec type IVx gene by agar dilution method.
Assay [10] deals with Staphylococcus aureus. Put plainly: Antibacterial activity against group 4-v1 PVL negative community-acquired methicillin-resistant Staphylococcus aureus ST 59 expressing SCCmec type X gene by agar dilution method.
The test system of assay [11] is Staphylococcus aureus. Put plainly: Antibacterial activity against group 4-v2 PVL negative community-acquired methicillin-resistant Staphylococcus aureus ST 59 expressing SCCmec type IVx gene by agar dilution method.
The test system of assay [12] is Staphylococcus aureus. Put plainly: Antibacterial activity against group 4-v3 PVL negative community-acquired methicillin-resistant Staphylococcus aureus ST 59 expressing SCCmec type IVc gene by agar dilution method.
Assay [13] concerns Staphylococcus aureus. Nature of the assay: Antibacterial activity against group 5 PVL negative community-acquired methicillin-resistant Staphylococcus aureus ST 5 expressing SCCmec type II gene by agar dilution method.
Assay [14] concerns Staphylococcus aureus. Put plainly: Antibacterial activity against group 6 PVL negative community-acquired methicillin-resistant Staphylococcus aureus ST 8 expressing SCCmec type IVx gene by agar dilution method.

≈ marks a conversion by molar mass, not a printed value.

On to `Cc1onc(-c2ccccc2)c1C(=O)N[C@@H]1C(=O)N2[C@@H]1SC(C)(C)[C@@H]2C(=O)O` [OXACILLIN], for which the MIC in assay [1] came out at 32 µg/mL (≈ 79.7 µM); in assay [2], 64 µg/mL (≈ 159 µM); in assay [3], 64 µg/mL (≈ 159 µM); in [4], 4 µg/mL (≈ 9.96 µM); in assay [5] it was 4 µg/mL (≈ 9.96 µM); in assay [6], 32 µg/mL (≈ 79.7 µM). Moreover, the MIC is no less than 128 µg/mL in assay [7]; no less than 128 µg/mL in assay [8]; no less than 128 µg/mL in assay [9]; 32 µg/mL (≈ 79.7 µM) in assay [10]; 64 µg/mL (≈ 159 µM) in assay [11]; 32 µg/mL (≈ 79.7 µM) in [12]. Also, the MIC in assay [13] was no less than 128 µg/mL; in [14] it was 32 µg/mL (≈ 79.7 µM).

As usually defined, the MIC is the lowest concentration found to suppress growth. A lower MIC goes with a more susceptible organism.
